Columns and labels:
[1] = tested on: chinese hamster ovary cells deficient in Brca2 (V-C8); test: Clonogenic assay, Brca2 deficient chinese hamster ovary cells (V-C8) vs Brca2-complemented derivative; assay type: cell-based; conditions: Brca2 deficient CHO cells vs complemented derivative
Description: VC8 cells and the mouse Brca2 BAC complemented derivatives were as described in M. Kraakman-van der Zwet et al., Mol Cell Biol 22, 669-79 (2002)). ES cells defective in Brca2 function have been described previously (Tutt et al. (2002) EMBO Rep 3, 255-60). The construction of ES cells defective in Brca1 will be described elsewhere but have previously been validated (Foray et al. (2003) Embo J 22 2860-71). HBL100 cells were transfected with a pSUPER BRCA1 RNAi plasmid and selected with geneticin for 3 weeks. Clones were selected on the basis of their BRCA1 expression, as analysed by Northern blot.
(§1) For measurement of sensitivity to chemical inhibitors, cell cultures e.g. ES cells or mouse embryonic fibroblasts, in exponential growth were trypsinised and seeded at various densities in 6-well plates onto confluent monolayer of Mitomycin C (MMC) inactivated mouse embryonic fibroblasts and, where appropriate, treated with inhibitors after 18 h. For continuous exposure, cells were re-fed every 4 days with fresh medium and inhibitor. For timed exposures, inhibitor was added for the specified period then cells were washed and re-fed with fresh medium. After 10-14 days, cells were washed with PBS, fixed in methanol and stained with crystal violet. Colonies containing greater than approximately 50 cells were counted. Experiments were performed at least three times in triplicate.

[2] = tested on: wild-type, Fanca−/−, Fancc−/− and Fanca−/−c−/− cells; test: γH2AX foci formation in wild-type and FA fibroblasts; assay type: cell-based, mouse; conditions: 48 hours exposure
[3] = tested on: Brca1 and Brca2 deficient cells; test: Timed-exposure clonogenic assay, Brca1 and Brca2 deficient cells; assay type: cell-based, mouse
Description: as §1
Cells were exposed to different concentrations of KU0058684 for defined periods of time. The inhibitor was then removed and the effects measured using a clonogenic assay. The inhibitory effects of KU0058684 on clonal growth were apparent after a relatively short exposure time, 4 h, and were essentially complete by 24 h exposure (FIGS. 5 and 6).

MCF7-scrambled cells = test: Clonal survival, BRCA1 wild-type MCF7-scrambled cells; assay type: cell-based, human; conditions: continuous exposure 12-14 days
Description: (§2) Log concentration of inhibitor is plotted against log surviving fraction of cells.
(§3) The MCF7 scrambled and MCF7-3.23 cell lines were generated by stable transfection of MCF7 mammary adenocarcinoma cells with gene specific pSUPER constructs. Gene specific pSUPER constructs were generated expressing the following RNAi target sequences: (i) human BRCA1 (SEQ ID NO:3) 5r-[…]-3′ (ii) scrambled control 5′-(SEQ ID NO:4) […]-3′. A 1.8 kb fragment containing the human EF1a promoter and the blasticidin resistance gene (bsd) was subcloned from pEFBsd (Invitrogen) into the SapI site of the resultant pSUPER constructs, generated pSUPER-Bsd-BRCA1 and pSUPER-Bsd-scrambled. MCF7 cells were transfected with these plasmids using FuGene6 (Roche) according to the manufacturers instructions. After selection in blasticidin, resistant clones were assessed by real time PCR for silencing of BRCA1 mRNA (Egawa et al Oncology. 2001; 61(4): 293-8; Egawa et al Int J. Cancer. 2001 Jul. 20; 95(4):255-9). Clones with reduced levels of BRCA1 mRNA were cultured (under blasticidin selection) over 8 passages and the real-time assay repeated.

MCF7-3.23 cells = test: Clonal survival, BRCA1 silenced MCF7-3.23 cells; assay type: cell-based, human
Description: as §2, §3

vault PARP = vault PARP (Homo sapiens, UniProt Q9UKK3); test: Selectivity: vault PARP inhibition; assay type: biochemical; conditions: at concentrations up to 1 μM
VC8-BAC cells = test: Neutral comet assay, complemented VC8-BAC line; assay type: cell-based, chinese hamster; conditions: 30-hour exposure to 1 μM
Description: VC8 and VC8-BAC cells were plated 24 hours prior to treatment with 1 μM KU0058684 for 30 hours. All further work was carried out in the dark. Cells were washed with and scraped into PBS prior to Comet analysis as described (Lemay and Wood, 1999). Cells suspended in LMP agarose (0.5% in PBS) were spread onto Comet slides (Trevigen, Gaithersburg) and placed at 4 C until set, prior to lysis for 45 mins in 2.5M NaCl, 100 mM EDTA, 10 mM Tris Base, 1% sodium lauryl sarcosinate, 0.01% Triton X-100. Slides were transferred to TBE for 5 mins prior to electrophoresis at 18V for 15 mins. Slides were then fixed in 100% ethanol for 5 mins and air dried before the addition of SYBR green dye and visualisation by epifluorescence using fluorescien filters (Nikon). Comets were analysed using the Comet software module of the Lucia G imaging package as supplied by Nikon. 50 comets per data point were examined for each of three independent experiments and the mean tail moment calculated.

PARP-1 = PARP-1 (Homo sapiens, UniProt P09874); test: PARP-1 enzyme activity inhibition; assay type: biochemical; conditions: read-out: IC50 against PARP-1 enzyme activity
Description: Chemical inhibitors were dissolved in DMSO at 10 mM and stored at −20° C. in the dark.

HeLa cells = test: Cell viability, HeLa cells exposed to PARP inhibitor and caffeine; conditions: 1 mM Caffeine plus KU0058684
Description: Error bars represent standard errors of the mean.
Caffiene was used to determine whether loss of ATM and ATR dependent DNA signalling pathways would induce sensitivity to PARP inhibition.

Brca1 deficient ES cells = test: Clonogenic assay, continuous exposure, Brca1 deficient ES cells; assay type: cell-based, mouse
Description: as §1

[4] = tested on: Brca1 and Brca2 deficient cells; test: Mitotic chromosome analysis; assay type: cell-based, mouse; conditions: 24 hours treatment
Description: ES cells were seeded onto gelatin, treated for 24 hours with chemical inhibitors, followed by colcemid treatment for 1 hour. Cells were harvested, fixed, dropped onto slides, dried and stained with DAPI before chromosome analysis under a microscope.

[5] = tested on: wild-type, Fanca−/−, Fancc−/− and Fanca−/−c−/− cells; test: RAD51 focus formation in wild-type and FA fibroblasts; assay type: cell-based, mouse; conditions: 48 hours exposure
Description: The percentage of cells with >5 foci per cell was quantified.
ES cells were cultured for 48 h in various concentrations of PARP inhibitor fixed in 4% paraformaldehyde in PBS and permeabilised with 0.2% Triton X100 in PBS. Cells were stained with a 1:100 dilution of rabbit anti-Rad51 ployclonal antibody (Ab 551922, BD-Pharmingen, Oxford, UK). After washing, the primary antibody was visualised with Alexa Fluor-555 goat anti-rabbit IgG (Alexa) and nuclei with TO-PRO-3 iodide (Molecular Probes). Rad51 foci and γH2Ax foci were visualised with and quantified using a Leica TCS-SP2 confocal microscope.

Brca2 deficient ES cells = test: Clonogenic assay, continuous exposure, Brca2 deficient ES cells; assay type: cell-based, mouse
Description: as §1

[6] = timed exposure, inhibitor then removed

Chain of PARP-1 (P09874 whole entry): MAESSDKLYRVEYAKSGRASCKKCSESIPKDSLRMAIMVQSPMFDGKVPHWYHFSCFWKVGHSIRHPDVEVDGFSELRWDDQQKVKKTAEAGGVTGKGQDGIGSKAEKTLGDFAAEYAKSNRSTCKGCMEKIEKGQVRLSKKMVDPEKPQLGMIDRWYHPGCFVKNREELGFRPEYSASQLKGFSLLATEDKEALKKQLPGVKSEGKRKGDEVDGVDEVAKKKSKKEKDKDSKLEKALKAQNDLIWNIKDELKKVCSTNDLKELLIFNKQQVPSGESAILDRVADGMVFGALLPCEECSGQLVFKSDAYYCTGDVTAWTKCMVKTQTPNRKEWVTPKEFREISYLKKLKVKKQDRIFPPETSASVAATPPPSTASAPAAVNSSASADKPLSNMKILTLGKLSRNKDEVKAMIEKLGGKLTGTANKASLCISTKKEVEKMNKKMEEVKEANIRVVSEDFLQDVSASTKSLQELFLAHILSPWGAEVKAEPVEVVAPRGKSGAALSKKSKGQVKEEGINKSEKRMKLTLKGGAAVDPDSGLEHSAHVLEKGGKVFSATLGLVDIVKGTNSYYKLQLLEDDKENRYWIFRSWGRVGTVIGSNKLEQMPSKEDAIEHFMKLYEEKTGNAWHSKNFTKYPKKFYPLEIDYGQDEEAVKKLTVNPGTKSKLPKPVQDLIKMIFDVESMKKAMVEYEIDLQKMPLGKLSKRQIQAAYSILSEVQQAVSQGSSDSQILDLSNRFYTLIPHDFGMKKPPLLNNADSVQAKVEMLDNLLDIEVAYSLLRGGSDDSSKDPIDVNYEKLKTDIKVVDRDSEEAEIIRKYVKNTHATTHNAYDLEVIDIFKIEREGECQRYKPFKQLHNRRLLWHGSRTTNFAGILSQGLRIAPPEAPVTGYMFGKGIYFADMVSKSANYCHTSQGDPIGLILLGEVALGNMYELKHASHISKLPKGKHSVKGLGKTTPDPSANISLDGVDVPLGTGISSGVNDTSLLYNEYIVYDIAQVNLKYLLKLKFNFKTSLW
Chain of vault PARP (Q9UKK3 whole entry): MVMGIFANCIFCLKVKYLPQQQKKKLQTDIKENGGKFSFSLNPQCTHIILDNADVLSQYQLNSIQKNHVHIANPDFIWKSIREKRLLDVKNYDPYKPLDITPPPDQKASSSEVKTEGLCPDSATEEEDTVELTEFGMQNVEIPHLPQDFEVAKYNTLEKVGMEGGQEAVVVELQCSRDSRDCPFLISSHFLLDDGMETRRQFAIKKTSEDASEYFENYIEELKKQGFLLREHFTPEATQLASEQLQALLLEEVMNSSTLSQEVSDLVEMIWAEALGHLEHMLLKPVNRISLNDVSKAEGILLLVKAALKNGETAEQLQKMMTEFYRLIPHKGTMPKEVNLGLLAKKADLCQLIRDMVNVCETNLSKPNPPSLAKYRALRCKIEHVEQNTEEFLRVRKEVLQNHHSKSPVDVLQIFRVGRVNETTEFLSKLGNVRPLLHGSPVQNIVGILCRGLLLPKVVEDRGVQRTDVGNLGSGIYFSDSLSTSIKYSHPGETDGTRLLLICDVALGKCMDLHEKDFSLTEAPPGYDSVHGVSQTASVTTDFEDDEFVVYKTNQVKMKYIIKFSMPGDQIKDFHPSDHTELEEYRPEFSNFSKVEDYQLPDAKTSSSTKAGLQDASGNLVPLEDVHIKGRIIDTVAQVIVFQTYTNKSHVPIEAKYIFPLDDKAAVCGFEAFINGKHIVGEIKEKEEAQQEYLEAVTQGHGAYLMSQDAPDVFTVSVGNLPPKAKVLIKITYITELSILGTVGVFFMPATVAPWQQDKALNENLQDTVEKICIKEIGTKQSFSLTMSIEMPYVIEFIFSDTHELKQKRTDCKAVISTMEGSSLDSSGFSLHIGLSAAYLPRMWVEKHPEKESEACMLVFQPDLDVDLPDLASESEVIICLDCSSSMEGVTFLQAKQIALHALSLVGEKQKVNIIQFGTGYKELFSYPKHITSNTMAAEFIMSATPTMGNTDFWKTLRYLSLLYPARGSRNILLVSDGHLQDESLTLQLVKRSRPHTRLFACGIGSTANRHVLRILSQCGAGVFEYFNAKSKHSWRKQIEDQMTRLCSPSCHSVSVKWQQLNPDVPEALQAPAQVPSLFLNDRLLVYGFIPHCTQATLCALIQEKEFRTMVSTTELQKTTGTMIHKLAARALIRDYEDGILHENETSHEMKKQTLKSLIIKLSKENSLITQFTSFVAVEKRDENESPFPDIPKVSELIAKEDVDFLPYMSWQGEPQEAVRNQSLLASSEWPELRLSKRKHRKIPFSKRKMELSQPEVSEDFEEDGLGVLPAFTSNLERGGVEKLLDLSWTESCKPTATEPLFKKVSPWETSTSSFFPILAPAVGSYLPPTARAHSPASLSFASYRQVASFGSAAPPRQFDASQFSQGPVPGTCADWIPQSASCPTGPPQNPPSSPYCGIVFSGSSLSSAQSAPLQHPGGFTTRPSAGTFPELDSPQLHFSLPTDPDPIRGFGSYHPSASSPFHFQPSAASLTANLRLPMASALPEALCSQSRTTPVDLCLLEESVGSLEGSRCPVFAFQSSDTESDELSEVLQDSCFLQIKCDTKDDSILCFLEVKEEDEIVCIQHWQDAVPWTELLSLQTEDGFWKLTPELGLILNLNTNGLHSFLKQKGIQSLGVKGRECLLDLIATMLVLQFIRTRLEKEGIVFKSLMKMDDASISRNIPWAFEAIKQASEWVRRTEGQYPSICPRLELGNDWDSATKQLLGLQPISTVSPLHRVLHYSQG

O=C1CCC(=O)N1c1cc(Cc2n[nH]c(=O)c3ccccc23)ccc1F [KU0058684]
enhanced sensitivity compared to a Brca2-complemented derivative [1]: greater than 1000 fold
γH2AX foci [2]: induction of γH2AX foci in all cells
reversibility of the effects of PARP inhibition ([3]; short exposure followed by 10-14 days in the absence of inhibitor): irreversible
exposure time after which inhibitory effects on clonal growth were apparent [3, 6]: 4 h
exposure time by which inhibitory effects on clonal growth were essentially complete [3, 6]: ≤ 24 h
sensitivity (clonal survival) (MCF7-scrambled cells): both cell lines were sensitive
sensitivity of MCF7-3.23 cells compared with MCF7-scrambled cells (MCF7-3.23 cells): significantly more sensitive
sensitivity (clonal survival) (MCF7-3.23 cells; MCF7-3.23, continuous exposure 12-14 days): both cell lines were sensitive
inhibition of vault PARP (vault PARP): do not inhibit
increase in tail moment (VC8-BAC cells): no significant increase
IC50 (PARP-1): 3.2 nM
sensitivity of HeLa cells to PARP inhibitor with caffeine (HeLa cells): increased sensitivity
IC50 (Brca1 deficient ES cells; Brca1 deficient ES cells, continuous exposure, read-out: SF50 (dosage at which 50% of cells survived)): 35 nM
enhanced sensitivity compared to wild-type (Brca1 deficient ES cells; Brca1 mutant cells vs wild-type): 57 fold
sensitivity of Brca1 deficient cells compared to otherwise isogenic cells (Brca1 deficient ES cells; clonogenic assay): extremely sensitive
mitotic chromosome aberrations [4]: frequent major aberrations
RAD51 focus formation [5]: Induction of RAD51 focus formation
IC50 (Brca2 deficient ES cells; Brca2 deficient ES cells, continuous exposure, read-out: SF50 (dosage at which 50% of cells survived)): 15 nM
enhanced sensitivity compared to wild-type (Brca2 deficient ES cells; Brca2 mutant cells vs wild-type): 133 fold
sensitivity of Brca2 deficient cells compared to otherwise isogenic cells (Brca2 deficient ES cells; clonogenic assay): extremely sensitive
